Source: PMC8459971, “Evaluation of the hepatotoxicity of the novel GPR40 (FFAR1) agonist CPL207280 in the rat and monkey” (PLoS ONE, 2021)
Several values for one entry are separate records, joined by “and”; a condition that tells them apart may be missing. Identical values can stand only once.

Key:
[1] = Viability assay, human primary hepatocytes, RT-glo, 48 h; type: cell-based; settings: human, primary human hepatocytes, sheet Fig1 panel C (primary human hepatocytes), 48 h, replicates, read-out: viability, normalized to DMSO-treated controls
Experimental: (§1) To study the viability of the liver cells, 5 × 10^3 HepG2 (ATCC®) or human primary cells (ThermoFisher Scientific, USA) were seeded in 100 μL of DMEM media (Gibco; Thermo Fisher Scientific, USA) supplemented with fetal bovine serum (FBS)- in a 96-well plate. […] The experiments were performed in triplicates.

[2] = test system: human primary hepatocytes; assay: as above; type: cell-based; settings: 48 h
Experimental: as §1

OATP1B1 = molecular target: T1, OATP1B1 (Homo sapiens, UniProt Q9Y6L6); assay: Uptake transporter inhibition assay, OATP1B1
T1 sequence (Q9Y6L6 1-691): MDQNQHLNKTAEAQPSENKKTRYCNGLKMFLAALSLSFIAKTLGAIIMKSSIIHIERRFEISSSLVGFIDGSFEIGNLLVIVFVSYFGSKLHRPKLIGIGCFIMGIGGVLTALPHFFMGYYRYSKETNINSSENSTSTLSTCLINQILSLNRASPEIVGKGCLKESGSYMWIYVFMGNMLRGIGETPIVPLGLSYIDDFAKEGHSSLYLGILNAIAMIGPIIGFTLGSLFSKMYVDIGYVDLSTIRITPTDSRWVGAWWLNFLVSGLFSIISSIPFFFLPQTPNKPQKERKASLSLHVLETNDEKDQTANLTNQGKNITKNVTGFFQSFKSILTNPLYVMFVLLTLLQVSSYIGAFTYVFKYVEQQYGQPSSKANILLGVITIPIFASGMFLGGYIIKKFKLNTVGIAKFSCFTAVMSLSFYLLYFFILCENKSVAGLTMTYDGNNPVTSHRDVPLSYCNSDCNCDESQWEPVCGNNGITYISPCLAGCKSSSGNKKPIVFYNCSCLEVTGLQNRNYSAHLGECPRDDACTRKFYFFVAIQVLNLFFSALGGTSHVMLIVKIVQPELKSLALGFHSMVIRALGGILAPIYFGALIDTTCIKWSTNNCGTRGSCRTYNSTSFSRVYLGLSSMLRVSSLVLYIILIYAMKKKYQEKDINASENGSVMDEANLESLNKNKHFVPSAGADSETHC
Experimental: For the uptake transporter inhibition assay, cells were washed twice with 100 μL of the appropriate buffer (HK, pH 7.4) for OATP1B1, followed by HBSS (pH 7.4) for (NTCP, OAT1, OAT2v1, OATP1A2, and OATP1B3). Uptake experiments were carried out at 37 ± 1°C in 50 μL of the respective buffer containing the probe substrate and the compound or solvent. […] After the experiment, cells were washed twice with 100 μL of cold appropriate buffer and lysed with 50 μL of 0.1 M NaOH. Radiolabeled probe substrate transport was determined by measuring an aliquot (35 μL) from each well for liquid scintillation counting.

[3] = Stability in microsomes, mouse; type: in vitro ADME; settings: for average DEG [%]: mouse microsomes, with cofactors
Experimental: The final incubation volume was 500 μL. Two control compounds (verapamil and donepezil) were included for each microsomal species, along with the appropriate vehicle control. The reactions were terminated by transferring 50 μL of incubate to 100 μL methanol containing an internal standard (metoprolol) at appropriate time points (0, 10, 20, 40, 60, and 120 min for the test compound and 0, 5, 10, 20, 40, and 60 min for the control compounds). The termination plates were centrifuged at 4000 x g at 4°C for 30 min to precipitate the protein. The supernatants were then collected for analysis, and LC-MS/MS was used for detection purposes. The system consisted of an Acquity™ Binary Solvent Manager, Acquity™ 4-position heated column manager, 2777 Ultra High Pressure Autosampler, and a Xevo-TQ MS triple quadrupole mass spectrometer (Waters Ltd., Herts, UK). This process was carried out twice.

in vivo = settings: both, Wistar Han, rat, 600 mg/kg, 14 days
[4] = Viability assay, HepG2 cells, MTT test, 48 h; type: cell-based, human; settings: human, HepG2 cells, sheet Fig1 panel B (HepG2), 48 h, replicates, read-out: viability, normalized to DMSO-treated controls
Experimental: as §1

HepG2 = assay: Viability assay, HepG2 cells, MTT test, 48 h; type: cell-based, human; settings: for viability, normalized to DMSO-treated controls: sheet Fig1 panel B (HepG2), replicates, in % (unit assumed)
Experimental: as §1

HepG2 cells = assay: Respiration in hepatocytes (Seahorse XF Mito stress test); type: cell-based, human
[5] = Mouse (CD) microsomes, mean n = 2

## Cc1cc(OCCCS(C)(=O)=O)cc(C)c1-c1cccc(COc2ccc3c(c2)OC[C@H]3CC(=O)O)c1 [TAK-875, fasiglifam, reference compound]
[1]; 0.78 uM
  viability at 48 h, 0.78 µM: 117%
[1]; 3.125 uM
  viability at 48 h, 3.125 µM: 113%
[1]; 6.25 uM
  viability at 48 h, 6.25 µM: 89.7%
[1]; 25 uM
  viability at 48 h, 25 µM: 64.7%
[1]; 50 uM
  viability at 48 h, 50 µM: 34.1%
[1]; 100 uM
  viability at 48 h, 100 µM: 4.16%
[2]; human primary hepatocytes, concentrations up to 10 μM
  viability: Neither compound exhibited altered viability
[2]; primary cells, 100 μM
  effect on growth: abolished the growth
OATP1B1
  IC50: 0.49 µM
[3]; [5]
  half-life at 3 μM: 5.72 h
  microsomal CLint at 3 μM: 4 µL/min/mg
[3]; 0 min
  average DEG [%]: 100.0%
[3]; 20 min
  average DEG [%]: 83.6%
[3]; 40 min
  average DEG [%]: 92.9%
[3]; 60 min
  average DEG [%]: 79.0%
In vivo
  exposure exceeding the CPL207280 exposure: 200%
[4]; 25 uM
  viability at 48 h, 25 µM: 67.5%
[4]; 50 uM
  viability at 48 h, 50 µM: 61.2%
HepG2; HepG2, 48 h, 100 μM
  effect on growth: abolished the growth
HepG2; HepG2, 48 h, concentrations up to 10 μM
  viability: Neither compound exhibited altered viability
HepG2; hepatocytes (HepG2 and human primary cells), 48 h, read-out: IC50 in the viability study
  IC50: ~50 µM
HepG2; 48 h, 0.78 uM
  viability, normalized to DMSO-treated controls: 126.396
HepG2; 48 h, 3.125 uM
  viability, normalized to DMSO-treated controls: 63.2509
HepG2; 48 h, 6.25 uM
  viability, normalized to DMSO-treated controls: 66.4311
HepG2; 48 h, 25 uM
  viability, normalized to DMSO-treated controls: 47.9859 and 54.8143
HepG2; 48 h, 50 uM
  viability, normalized to DMSO-treated controls: 48.6926 and 45.8734
HepG2; 48 h, 100 uM
  viability, normalized to DMSO-treated controls: 25.4386 and 23.9576 and 12.1733
HepG2 cells; Fig2 B, HepG2, 0,3 uM, 61.3509 min
  oxygen consumption rate, mito stress tracing: 201.605
HepG2 cells; HepG2, 30 uM, replicates
  ECAR (Extracellular Acidification Rate): 1.734
HepG2 cells; HepG2, Seahorse XF
  effect on maximal respiratory capacity after FCCP: dose-dependent reduction in maximal respiratory capacity
HepG2 cells; Homo sapiens, HepG2, Seahorse XF, read-out: EC50 of acidification of media (ECAR)
  EC50: 46 µM
